# Test results from PubChem BioAssay AID256 (DTP/NCI, 2004).
# Values joined by “and” are separate entries in the source; they are usually repeats but may differ in a detail not shown here. Identical values can stand only once. Toxic doses and inconclusive results are not listed.
# Test system: CD2F1 mice, L1210 leukemia ip, survival T/C
# Test: NCI In Vivo Anticancer Drug Screen. Data for tumor model L1210 Leukemia (intraperitoneal) in CD2F1 (CDF1) mice
# Details: higher = longer survival
# Method in brief: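 Read-out first: treated-group measurement over vehicle-control measurement, expressed as a ratio. Animals bore a transplanted tumor line and were dosed with compound or vehicle.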
# [1] = endpoint: mean survival time, dose: 100.0 mg/kg/injection, schedule: Q04DX003 (ip), vehicle: saline
# [2] = endpoint: mean survival time, dose: 200.0 mg/kg/injection, schedule: Q04DX003 (ip), vehicle: saline
# [3] = endpoint: mean survival time, dose: 400.0 mg/kg/injection, schedule: Q04DX003 (ip), vehicle: saline
# [4] = endpoint: mean survival time, dose: 100.0 mg/kg/injection, schedule: Q04DX003 (ip), vehicle: saline with Tween-80
# [5] = endpoint: mean survival time, dose: 200.0 mg/kg/injection, schedule: Q04DX003 (ip), vehicle: saline with Tween-80
# [6] = endpoint: mean survival time, dose: 400.0 mg/kg/injection, schedule: Q04DX003 (ip), vehicle: saline with Tween-80
# [7] = endpoint: mean survival time, dose: 100.0 mg/kg/injection, schedule: Q01DX001 (ip), vehicle: saline with Tween-80
# [8] = endpoint: mean survival time, dose: 200.0 mg/kg/injection, schedule: Q01DX001 (ip), vehicle: saline with Tween-80
# [9] = endpoint: mean survival time, dose: 400.0 mg/kg/injection, schedule: Q01DX001 (ip), vehicle: saline with Tween-80
# [10] = endpoint: mean survival time, dose: 100.0 mg/kg/injection, schedule: Q01DX009 (ip), vehicle: Klucel (hydroxypropylcellulose) (HPC)
# [11] = endpoint: mean survival time, dose: 100.0 mg/kg/injection, schedule: Q04DX002 (ip), vehicle: saline with Tween-80
# [12] = endpoint: mean survival time, dose: 200.0 mg/kg/injection, schedule: Q01DX009 (ip), vehicle: Klucel (hydroxypropylcellulose) (HPC)
# [13] = endpoint: mean survival time, dose: 200.0 mg/kg/injection, schedule: Q04DX002 (ip), vehicle: saline with Tween-80
# [14] = endpoint: mean survival time, dose: 400.0 mg/kg/injection, schedule: Q04DX002 (ip), vehicle: saline with Tween-80
# [15] = endpoint: mean survival time, dose: 50.0 mg/kg/injection, schedule: Q01DX009 (ip), vehicle: saline
# [16] = endpoint: mean survival time, dose: 50.0 mg/kg/injection, schedule: Q01DX009 (ip), vehicle: saline with Tween-80
# [17] = endpoint: mean survival time, dose: 100.0 mg/kg/injection, schedule: Q01DX009 (ip), vehicle: saline with Tween-80
# [18] = endpoint: mean survival time, dose: 12.5 mg/kg/injection, schedule: Q04DX002 (ip), vehicle: saline with Tween-80
smiles,measurement,setting,value
CC1=C(/C=C/C(O)CC(O)(C(F)(F)F)C(F)(F)F)C(C)(C)CCC1 (centres undefined),T/C,[1],107 % of control
same,T/C,[2],98 % of control
same,T/C,[3],110 % of control
CN(C)C(=S)S,T/C,"endpoint: mean survival time, dose: 50.0 mg/kg/injection, schedule: Q01DX001 (ip), vehicle: carboxymethylcellulose (CMC)",93 % of control
same,T/C,"endpoint: mean survival time, dose: 100.0 mg/kg/injection, schedule: Q01DX001 (ip), vehicle: carboxymethylcellulose (CMC)",89 % of control
same,T/C,[4],94 % of control
same,T/C,"endpoint: mean survival time, dose: 200.0 mg/kg/injection, schedule: Q01DX001 (ip), vehicle: carboxymethylcellulose (CMC)",104 % of control
same,T/C,[5],105 % of control
same,T/C,"endpoint: mean survival time, dose: 400.0 mg/kg/injection, schedule: Q01DX001 (ip), vehicle: carboxymethylcellulose (CMC)",106 % of control
same,T/C,[6],100 % of control
CC(=O)C1=C2c3ccccc3C(=O)c3c(Br)cc(S(=O)(=O)O)c(c32)NC1,T/C,[7],94 % of control
same,T/C,[8],94 % of control
same,T/C,[9],90 % of control
O=C1NC(=O)C(=Cc2cc3c(cc2Br)OCO3)C(=O)N1,T/C,"endpoint: mean survival time, dose: 25.0 mg/kg/injection, schedule: Q01DX009 (ip), vehicle: Klucel (hydroxypropylcellulose) (HPC)",91 % of control
same,T/C,"endpoint: mean survival time, dose: 50.0 mg/kg/injection, schedule: Q01DX009 (ip), vehicle: Klucel (hydroxypropylcellulose) (HPC)",93 % of control
same,T/C,[10],89 % of control
same,T/C,[11],104 % of control
same,T/C,[12],100 % of control
same,T/C,[13],112 % of control
same,T/C,[14],108 % of control
CC(Br)(C(=O)O)C1CCCCC1 (centres undefined),T/C,[7],93 % of control
same,T/C,[8],96 % of control
same,T/C,[9],99 % of control
c1ccc2c(c1)OC1(CCCCC1)O2,T/C,[4],100 % of control
same,T/C,[5],103 % of control
same,T/C,[6],102 % of control
O=[N+]([O-])O.[NH-]C1CCCCC1[NH-].[NH-]C1CCCCC1[NH-].[OH-].[OH-].[Pt+4].[Pt+4] (centres undefined),T/C,"endpoint: mean survival time, dose: 1.25 mg/kg/injection, schedule: Q04DX003 (ip), vehicle: water",110 % of control
Cc1ccc(S(=O)(=O)N(CCCc2c(C)nc(N)nc2Nc2ccccc2)c2ccccc2)cc1,T/C,[7],92 % of control
COc1ccc(C(O)(c2ccccc2)C(OC(=O)c2cc([N+](=O)[O-])cc([N+](=O)[O-])c2)c2ccccc2)cc1 (centres undefined),T/C,[7],87 % of control
same,T/C,[8],94 % of control
same,T/C,[9],91 % of control
CCCCCCCCCCCCNC(=O)Nc1cccc(OC)c1,T/C,[11],94 % of control
same,T/C,[13],94 % of control
same,T/C,[14],87 % of control
O=[P+](O)C(O)c1ccccc1 (centres undefined),T/C,[1],108 % of control
same,T/C,[2],111 % of control
same,T/C,[3],117 % of control
CSc1sc2ccccc2[n+]1C,T/C,"endpoint: mean survival time, dose: 25.0 mg/kg/injection, schedule: Q01DX009 (ip), vehicle: saline",100 % of control
same,T/C,[15],110 % of control
CCOC(=O)Nc1cc(=O)cc(NC(=O)OCC)[nH]1,T/C,"endpoint: mean survival time, dose: 75.0 mg/kg/injection, schedule: Q04DX003 (ip), vehicle: saline",98 % of control
same,T/C,"endpoint: mean survival time, dose: 150.0 mg/kg/injection, schedule: Q04DX003 (ip), vehicle: saline",97 % of control
same,T/C,"endpoint: mean survival time, dose: 300.0 mg/kg/injection, schedule: Q04DX003 (ip), vehicle: saline",97 % of control
COc1ccc(C=C(C(=O)CCN(C)C)C(=O)CCN(C)C)cc1,T/C,"endpoint: median survival time, dose: 25.0 mg/kg/injection, schedule: Q01DX005 (ip), vehicle: saline",100 % of control
same,T/C,"endpoint: median survival time, dose: 50.0 mg/kg/injection, schedule: Q01DX005 (ip), vehicle: saline",100 % of control
same,T/C,"endpoint: median survival time, dose: 100.0 mg/kg/injection, schedule: Q01DX005 (ip), vehicle: saline",100 % of control
same,T/C,"endpoint: median survival time, dose: 200.0 mg/kg/injection, schedule: Q01DX005 (ip), vehicle: saline",102 % of control
Cc1cc(N)c(S(=O)(=O)NO)cc1Cl,T/C,[7],96 % of control
same,T/C,[8],96 % of control
same,T/C,[9],102 % of control
C#CC(OC(=O)Nc1ccccc1)C1OC2OC(C)(C)OC2C2OC(C)(C)OC12 (centres undefined),T/C,[16],97 % of control
same,T/C,[17],93 % of control
same,T/C,"endpoint: mean survival time, dose: 200.0 mg/kg/injection, schedule: Q01DX009 (ip), vehicle: saline with Tween-80",97 % of control
CC1SC(C(C)(C)C)SC(C)C1C(C)(C)C (centres undefined),T/C,[18],102 % of control
same,T/C,"endpoint: mean survival time, dose: 25.0 mg/kg/injection, schedule: Q04DX002 (ip), vehicle: saline with Tween-80",102 % of control
same,T/C,"endpoint: mean survival time, dose: 50.0 mg/kg/injection, schedule: Q04DX002 (ip), vehicle: saline with Tween-80",102 % of control
O=C(c1cccnc1)c1cc2ccccc2n1S(=O)(=O)c1ccccc1,T/C,[7],97 % of control
same,T/C,[8],97 % of control
same,T/C,[9],97 % of control
CCCC(=O)Nc1ccn(C2OC(COC(=O)CCC)C(OC(=O)CCC)C2OC(=O)CCC)c(=O)n1 (centres undefined),T/C,[10],112 % of control
same,T/C,[12],114 % of control
O=C1NCCN1c1ncc([N+](=O)[O-])s1,T/C,"endpoint: mean survival time, dose: 25.0 mg/kg/injection, schedule: Q01DX009 (ip), vehicle: saline with Tween-80",101 % of control
same,T/C,[16],97 % of control
same,T/C,[17],97 % of control
CCOC(=O)C(C)(C)Br,T/C,"endpoint: mean survival time, dose: 100.0 mg/kg/injection, schedule: Q01DX009 (ip), vehicle: saline sonified",105 % of control
same,T/C,[17],102 % of control
same,T/C,[4],95 % of control and 98 % of control and 103 % of control
same,T/C,"endpoint: mean survival time, dose: 200.0 mg/kg/injection, schedule: Q01DX009 (ip), vehicle: saline sonified",100 % of control
same,T/C,[5],95 % of control and 98 % of control and 100 % of control
same,T/C,"endpoint: mean survival time, dose: 400.0 mg/kg/injection, schedule: Q01DX009 (ip), vehicle: saline sonified",106 % of control
same,T/C,"endpoint: mean survival time, dose: 400.0 mg/kg/injection, schedule: Q01DX009 (ip), vehicle: saline with Tween-80",90 % of control
same,T/C,[6],96 % of control and 103 % of control and 106 % of control
Cn1c(C(O)c2cccnc2)c(CN2CCCCC2)c2ccccc21 (centres undefined),T/C,[7],97 % of control
same,T/C,[8],94 % of control
CC(=O)NC1=C(Sc2ccc([N+](=O)[O-])cc2)C(=O)c2ccccc2C1=O,T/C,"endpoint: mean survival time, dose: 75.0 mg/kg/injection, schedule: Q01DX001 (ip), vehicle: saline",98 % of control
CCN(CC)CC[n+]1ccc2c(C)c3[nH]c4ccc(O)cc4c3c(C)c2c1,T/C,"endpoint: mean survival time, dose: 3.12 mg/kg/injection, schedule: Q01DX009 (ip), vehicle: suspension in saline",179 % of control
same,T/C,"endpoint: mean survival time, dose: 6.25 mg/kg/injection, schedule: Q01DX009 (ip), vehicle: suspension in saline",228 % of control
same,T/C,"endpoint: mean survival time, dose: 12.5 mg/kg/injection, schedule: Q01DX009 (ip), vehicle: suspension in saline",170 % of control and 262 % of control
same,T/C,"endpoint: mean survival time, dose: 25.0 mg/kg/injection, schedule: Q01DX009 (ip), vehicle: suspension in saline",116 % of control and 111 % of control
same,T/C,[15],102 % of control
same,T/C,"endpoint: mean survival time, dose: 50.0 mg/kg/injection, schedule: Q01DX009 (ip), vehicle: suspension in saline",92 % of control
CCC[CH2][Sn]1([CH2]CCC)[N](S(=O)(=O)c2ccc(C)cc2)c2ccccc2[N]1S(=O)(=O)c1ccc(C)cc1,T/C,"endpoint: mean survival time, dose: 3.13 mg/kg/injection, schedule: Q04DX002 (ip), vehicle: saline with Tween-80",94 % of control
same,T/C,"endpoint: mean survival time, dose: 6.25 mg/kg/injection, schedule: Q04DX002 (ip), vehicle: saline with Tween-80",102 % of control
same,T/C,[18],94 % of control
O=C1CC2(C(=O)N1CN1CCOCC1)c1ccccc1-c1ccccc12,T/C,"endpoint: median survival time, dose: 25.0 mg/kg/injection, schedule: Q01DX009 (ip), vehicle: Klucel (hydroxypropylcellulose) (HPC)",103 % of control
same,T/C,"endpoint: median survival time, dose: 50.0 mg/kg/injection, schedule: Q01DX009 (ip), vehicle: Klucel (hydroxypropylcellulose) (HPC)",102 % of control
same,T/C,"endpoint: median survival time, dose: 100.0 mg/kg/injection, schedule: Q01DX009 (ip), vehicle: Klucel (hydroxypropylcellulose) (HPC)",96 % of control
same,T/C,"endpoint: median survival time, dose: 200.0 mg/kg/injection, schedule: Q01DX009 (ip), vehicle: Klucel (hydroxypropylcellulose) (HPC)",100 % of control
same,T/C,"endpoint: median survival time, dose: 400.0 mg/kg/injection, schedule: Q01DX009 (ip), vehicle: Klucel (hydroxypropylcellulose) (HPC)",107 % of control
CC(=O)C(C)(O)C(C)(C)C (centres undefined),T/C,[1],95 % of control
same,T/C,[2],93 % of control
same,T/C,[3],98 % of control
COc1cc2c(c(OC)c1OC)-c1ccc(SC)c(=O)cc1[C@@H](NC1OC(COC(C)=O)C(OC(C)=O)C(OC(C)=O)C1OC(C)=O)CC2 (some centres undefined),T/C,"endpoint: mean survival time, dose: 1.5 mg/kg/injection, schedule: Q01DX009 (ip), vehicle: other",97 % of control
same,T/C,"endpoint: mean survival time, dose: 3.0 mg/kg/injection, schedule: Q01DX009 (ip), vehicle: other",97 % of control
same,T/C,"endpoint: mean survival time, dose: 6.0 mg/kg/injection, schedule: Q01DX009 (ip), vehicle: other",97 % of control
same,T/C,"endpoint: mean survival time, dose: 12.0 mg/kg/injection, schedule: Q01DX009 (ip), vehicle: other",96 % of control
same,T/C,"endpoint: mean survival time, dose: 24.0 mg/kg/injection, schedule: Q01DX009 (ip), vehicle: other",96 % of control
CCC(C)(S(=O)(=O)CC)S(=O)(=O)CC,T/C,[4],102 % of control
same,T/C,[5],98 % of control
same,T/C,[6],98 % of control
